Test results from paper PMC9782245, “Synthesis and Structural Optimization of 2,7,9-Trisubstituted purin-8-ones as FLT3-ITD Inhibitors” (International Journal of Molecular Sciences, 2022).
Where “and” joins values, the source holds several entries; their conditions need not be identical. Identical values can stand only once. Like-named read-outs stand apart in the source and are kept apart here.

Key:
K562 cells = assay: Resazurin-based viability assay, K562; assay type: cell-based; conditions: Homo sapiens, 72 h, at least duplicate experiments
Excerpt: (§1) In parallel to kinase assays, we measured the effect of compounds on the viability of cancer cell lines MV4-11 and K562 using a resazurin-based assay. MV4-11 is an AML cell line dependent on a constitutively activated FLT3-ITD kinase with high sensitivity to FLT3 inhibition, K562 cells (chronic myelogenous leukemia) are independent on FLT3.
(§2) Human cell lines were obtained from the European Collection of Authenticated Cell Cultures (K562) and Cell lines service (MV4-11) and were cultivated according to the provider’s instructions. Briefly, cells were maintained in RPMI-1640 (MV4-11) or DMEM (K562) supplemented with 10% fetal bovine serum, penicillin (100 U/mL), and streptomycin (0.1 mg/mL) at 37 °C in 5% CO2. For the viability assays, cells were treated in triplicate with six different doses of each compound for 72 h. After treatments, the resazurin (Sigma Aldrich, St. Louis, MO, USA) solution was added for 4 h, and the fluorescence of resorufin corresponding to live cells was measured at 544/590 nm (excitation/emission) using a Fluoroskan Ascent microplate reader (Labsystems). The GI50 value, the drug concentration lethal to 50% of the cells, was calculated from the dose-response curves that resulted from the assays.

MV4-11 cells = assay: Resazurin-based viability assay, MV4-11; assay type: cell-based, Human; conditions: for GI50: Homo sapiens, MV4-11, 72 h, resazurin, at least duplicate experiments
Excerpt: as §1, §2

CDK4/D1 = CDK4/D1 (Homo sapiens, UniProt P11802); assay: Kinase inhibition assay CDK4/D1; assay type: biochemical
CDK4/D1, sequence (P11802 whole entry): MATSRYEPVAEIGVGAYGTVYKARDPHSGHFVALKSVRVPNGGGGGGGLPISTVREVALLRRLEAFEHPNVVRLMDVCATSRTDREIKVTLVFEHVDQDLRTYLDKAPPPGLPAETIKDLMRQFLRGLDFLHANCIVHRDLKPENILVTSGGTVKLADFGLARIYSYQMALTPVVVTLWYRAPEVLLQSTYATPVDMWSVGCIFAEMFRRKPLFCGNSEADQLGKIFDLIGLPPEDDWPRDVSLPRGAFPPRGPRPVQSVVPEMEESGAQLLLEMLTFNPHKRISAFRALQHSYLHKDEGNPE
CDK4/D1, sequence (P24385 whole entry partner): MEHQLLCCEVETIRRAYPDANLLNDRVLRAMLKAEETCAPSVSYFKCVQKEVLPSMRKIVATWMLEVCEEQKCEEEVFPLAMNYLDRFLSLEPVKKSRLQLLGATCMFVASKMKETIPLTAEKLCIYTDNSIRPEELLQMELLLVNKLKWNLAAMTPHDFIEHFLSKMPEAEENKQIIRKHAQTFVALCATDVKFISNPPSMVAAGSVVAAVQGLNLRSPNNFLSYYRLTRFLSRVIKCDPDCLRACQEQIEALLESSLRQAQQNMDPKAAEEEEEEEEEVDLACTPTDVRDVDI
Protocol: (§3) Newly prepared compounds 12–15 were assayed for inhibition of FLT3-ITD kinase as well as CDK4 and CDK2, known off-targets of structurally related compounds. We observed that CDK4 was sensitive to nearly all compounds with IC50 values in mid-nanomolar values.
(§4) CDK/cyclin complexes and FLT3 kinases were assayed as previously described. Protein kinase selectivity was evaluated at a single concentration (1 µM) by screening against 30 enzymes at Eurofins Discovery (France).

CDK2/E = CDK2/E (Homo sapiens, UniProt P24941); assay: Kinase inhibition assay CDK2/E; assay type: biochemical
Protocol: as §3, §4

FLT3-ITD = molecular target: T1, FLT3-ITD (Homo sapiens, UniProt P36888, ITD); assay: Kinase inhibition assay FLT3-ITD; assay type: biochemical
T1 sequence (P36888 27-993): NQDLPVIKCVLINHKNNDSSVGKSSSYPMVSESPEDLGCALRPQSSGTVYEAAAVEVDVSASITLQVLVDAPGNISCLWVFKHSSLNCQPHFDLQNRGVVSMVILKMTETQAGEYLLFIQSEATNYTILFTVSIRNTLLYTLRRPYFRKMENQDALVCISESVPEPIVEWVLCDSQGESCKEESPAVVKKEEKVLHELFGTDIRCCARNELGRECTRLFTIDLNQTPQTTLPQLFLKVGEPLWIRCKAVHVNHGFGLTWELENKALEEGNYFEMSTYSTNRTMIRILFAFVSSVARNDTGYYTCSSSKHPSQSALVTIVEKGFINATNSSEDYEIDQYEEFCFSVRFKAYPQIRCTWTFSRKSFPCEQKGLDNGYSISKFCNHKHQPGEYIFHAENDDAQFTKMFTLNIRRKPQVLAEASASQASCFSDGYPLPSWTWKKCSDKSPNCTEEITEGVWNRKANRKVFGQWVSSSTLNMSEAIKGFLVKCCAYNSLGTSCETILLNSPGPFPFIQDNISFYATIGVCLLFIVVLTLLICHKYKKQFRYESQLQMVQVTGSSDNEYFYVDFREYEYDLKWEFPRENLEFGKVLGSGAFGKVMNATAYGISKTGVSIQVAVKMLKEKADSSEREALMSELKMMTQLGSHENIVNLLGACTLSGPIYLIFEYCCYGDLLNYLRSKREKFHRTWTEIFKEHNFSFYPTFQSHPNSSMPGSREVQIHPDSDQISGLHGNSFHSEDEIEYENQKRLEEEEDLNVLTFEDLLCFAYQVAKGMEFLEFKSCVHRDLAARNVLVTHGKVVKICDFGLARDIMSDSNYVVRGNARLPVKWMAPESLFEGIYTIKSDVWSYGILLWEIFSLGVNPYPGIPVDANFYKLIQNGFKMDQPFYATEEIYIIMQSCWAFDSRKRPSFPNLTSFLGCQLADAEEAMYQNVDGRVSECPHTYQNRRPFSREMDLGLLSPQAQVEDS
Protocol: as §3, §4

[1] = at least duplicate experiments, read-out: IC50 CDK4/D1
[2] = at least duplicate experiments, read-out: IC50 CDK2/E
[3] = at least duplicate experiments, read-out: IC50 FLT3-ITD

SMILES | GI50 (K562 cells) | GI50 (MV4-11 cells) | melting point | IC50 (CDK4/D1; [1]) | IC50 (CDK2/E; [2]) | IC50 (FLT3-ITD; [3]) | IC50 (CDK4/D1; read-out: IC50 CDK4) | IC50 (FLT3-ITD; read-out: IC50 FLT3) | IC50 (CDK2/E; read-out: IC50 CDK2) | selectivity index (ratio for GI50's of K562 and MV4-11 cells) (MV4-11 cells; K562 / MV4-11)
FC(F)(F)c1nc2cnc(Nc3ccc(N4CCNCC4)cc3)nc2n1C1CCCC1 [12a] | 1110 nM | 220 nM | 232 to 234 °C | 51 nM | 1630 nM | 224 nM |  |  |  | 
FC(F)(F)c1nc2cnc(Nc3ccc(N4CCNCC4)cc3)nc2n1C1CCCCC1 [12b] | 1170 nM | 110 nM | 218 to 220 °C | 16 nM | 230 nM | 60 nM |  |  |  | 
FC(F)(F)c1nc2cnc(Nc3ccc(N4CCNCC4)cc3)nc2n1C1CCCCCC1 [12d] | 2450 nM | 250 nM | 216 to 218 °C | 22 nM | 150 nM | 88 nM |  |  |  | 
O=c1[nH]c2cnc(Nc3ccc(N4CCNCC4)cc3)nc2n1C1CCCC1 [13a] | 1630 nM | 680 nM | 200 to 202 °C | 2880 nM | 24500 nM | 2370 nM |  |  |  | 
O=c1[nH]c2cnc(Nc3ccc(N4CCNCC4)cc3)nc2n1C1CCCCC1 [13b] | 1780 nM | 690 nM |  | 782 nM | 3360 nM | 1590 nM |  |  |  | 
CC1CCC(n2c(=O)[nH]c3cnc(Nc4ccc(N5CCNCC5)cc4)nc32)CC1 (stereo not shown) [13c] | 1900 nM | 700 nM |  | 451 nM | 2560 nM | 1050 nM |  |  |  | 
O=c1[nH]c2cnc(Nc3ccc(N4CCNCC4)cc3)nc2n1C1CCCCCC1 [13d] | 1580 nM | 560 nM |  | 479 nM | 1000 nM | 425 nM |  |  |  | 
Cn1c(=O)n(C2CC2)c2nc(Nc3ccc(N4CCNCC4)cc3)ncc21 [14b] | 45300 nM | 710 nM | 156 to 158 °C | > 1000 nM and 8020 nM | > 20000 nM | 642 nM |  |  |  | 
Cn1c(=O)n(C2CCC2)c2nc(Nc3ccc(N4CCNCC4)cc3)ncc21 [14c] | 1040 nM | 110 nM |  | 524 nM | 3900 nM | 56 nM | 400 to 520 nM | 50 to 60 nM |  | 
Cn1c(=O)n([C@H]2CC[C@H](O)CC2)c2nc(Nc3ccc(N4CCNCC4)cc3)ncc21 [14f] | 9370 nM | 510 nM | 272 to 274 °C | 250 nM | > 1000 nM and 2870 nM | 132 nM |  |  |  | 
Cn1c(=O)n([C@H]2CC[C@H](C)CC2)c2nc(Nc3ccc(N4CCNCC4)cc3)ncc21 [14g] | 1260 nM | 110 nM | 114 to 116 °C | 27 nM | 180 nM | 68 nM | ≤ 300 nM | ≤ 300 nM | ≤ 300 nM | 
Cn1c(=O)n(C2CCCCCC2)c2nc(Nc3ccc(N4CCNCC4)cc3)ncc21 [14h] | 1480 nM | 100 nM | 256 to 258 °C | 22 nM | 60 nM | 34 nM | ≤ 300 nM | ≤ 300 nM | ≤ 300 nM | 
Cn1c(=O)n(C2CCCCCCC2)c2nc(Nc3ccc(N4CCNCC4)cc3)ncc21 [14i] | 2460 nM | 90 nM |  | 25 nM | 90 nM | 12 nM | ≤ 300 nM | ≤ 300 nM | ≤ 300 nM | > 20
Cn1c(=O)n(C2CCOCC2)c2nc(Nc3ccc(N4CCNCC4)cc3)ncc21 [14k] | 18200 nM | 590 nM | 124 to 126 °C | > 1000 nM and 2530 nM | > 1000 nM and 9250 nM | 450 nM |  |  |  | 

Now from value to molecule, other results behind:

GI50 (K562 cells) | GI50 (MV4-11 cells) | melting point | IC50 (CDK4/D1; [1]) | IC50 (CDK2/E; [2]) | IC50 (FLT3-ITD; [3]) | IC50 (CDK4/D1; read-out: IC50 CDK4) | IC50 (FLT3-ITD; read-out: IC50 FLT3) | IC50 (CDK2/E; read-out: IC50 CDK2) | SMILES | selectivity index (ratio for GI50's of K562 and MV4-11 cells) (MV4-11 cells; K562 / MV4-11)
3030 nM | 340 nM | 120 to 122 °C | 400 nM | 3740 nM | 54 nM | 400 to 520 nM | 50 to 60 nM |  | Cn1c(=O)n(-c2ccccc2)c2nc(Nc3ccc(N4CCNCC4)cc3)ncc21 [14m] | 
7620 nM | 460 nM | 126 to 128 °C | 169 nM | > 1000 nM and 2400 nM | 160 nM |  |  |  | Cc1ccc(-n2c(=O)n(C)c3cnc(Nc4ccc(N5CCNCC5)cc4)nc32)cc1 [14o] | 
370 nM | 310 nM | 185 to 187 °C | 2720 nM | 1590 nM | 306 nM |  |  |  | COc1ccccc1-n1c(=O)n(C)c2cnc(Nc3ccc(N4CCNCC4)cc3)nc21 [14p] | 
1970 nM | 400 nM | 270 to 272 °C | 488 nM | > 1000 nM and 6180 nM | 262 nM |  |  |  | COc1ccc(-n2c(=O)n(C)c3cnc(Nc4ccc(N5CCNCC5)cc4)nc32)cc1 [14q] | 
11900 nM | 900 nM | 102 to 104 °C | > 20000 nM | > 1000 nM and 20000 nM | 456 nM |  |  |  | COc1ccc(Cn2c(=O)n(C)c3cnc(Nc4ccc(N5CCNCC5)cc4)nc32)c(OC)c1 [14r] | 
2530 nM | 330 nM |  | > 1000 nM and 6900 nM | > 1000 nM and 9530 nM | 850 nM |  |  |  | Cn1c(=O)n(-c2cccc3ccccc23)c2nc(Nc3ccc(N4CCNCC4)cc3)ncc21 [14s] | 
2290 nM | 520 nM | 248 to 250 °C | 216 nM | > 1000 nM and 7700 nM | 345 nM |  |  |  | Cn1c(=O)n(C=Cc2ccc(F)cc2)c2nc(Nc3ccc(N4CCNCC4)cc3)ncc21 [14t] | 
1510 nM | 130 nM | 132 to 134 °C | 2120 nM | 10300 nM | 68 nM |  |  |  | CC(C)n1c(=O)n(C2CCCCC2)c2nc(Nc3ccc(N4CCNCC4)cc3)ncc21 [15b] | 
1450 nM | 130 nM | 264 to 266 °C | 1100 nM | 4140 nM | 40 nM |  |  |  | CC1CCC(n2c(=O)n(C(C)C)c3cnc(Nc4ccc(N5CCNCC5)cc4)nc32)CC1 (stereo not shown) [15c] | 
1180 nM | 100 nM |  | 1100 nM | 2320 nM | 27 nM |  |  |  | CC(C)n1c(=O)n(C2CCCCCC2)c2nc(Nc3ccc(N4CCNCC4)cc3)ncc21 [15d] | 
